Reference: patent US20120208848A1 (NEUROSYSTEC CORPORATION, priority 2005, published 2012)

How the values were obtained:
Format in all cases: physicochemical
[1] = Solubility of gacyclidine chloride salt and free base in water / Ringer's solution
Excerpt: The free base form of gacyclidine is poorly soluble in water and adheres to plastic surfaces.

[2] = Gacyclidine remaining in solution as a function of pH and excipients, 37° C., polypropylene vials
Description: This same procedure was conducted at 37° C., and the samples were maintained in polypropylene vials (VWR # 20170-710, 2 mL vial).

[3] = Loss of 25 μM gacyclidine in polypropylene vials with and without SOLUTOL HS 15; settings: 0.15 M NaCl, 37° C., one or three days
Description: Some of these solutions also contained 0.1% SOLUTOL® HS 15.
Although the results after three days of incubation parallel those obtained after one day of incubation at 37° C., the increased loss observed at low pH in the samples incubated for three days presumably reflected losses due to decomposition.

[4] = Chemical stability of gacyclidine acid and base forms (decomposition to piperidine); settings: for decomposition rate: 54° C.; for time required for 10% loss of gacyclidine due to decomposition / rate of decomposition: acid form
Description: (§1) To monitor piperidine formation a Zorbax SB-CN column (25×0.46 cm, 5 μm; PN 880975, SN USS F01 3866) purchased from Agilent Technologies was maintained at 30° C. and eluted with a mixture composed of 50% Buffer A and 50% Buffer B at 150 μL/minute for 60 minutes. Buffer A was composed of water containing 0.1% trifluoroacetic acid and Buffer B was composed of acetonitrile containing 0.1% trifluoroacetic acid. The effluent from this column was interfaced with an AQA single quadrupole mass spectrometer (Thermo Electron) and a Surveyor PDA detector (UV monitor, Thermo Electron). The column effluent was monitored at 232 nm and scans were collected between 200 to 300 nm by use of the PDA detector. […] Piperidine was detected by the mass spectrometer at 16.0 minutes after injection onto the Zorbax SB-CN column (at m/z=86 only). Piperidine could not be detected by use of the PDA (UV monitor).
Both sets of samples were then incubated for various lengths of time at either 54 or 56° C.
At 5° C., the rate of decomposition was very slow and was difficult to measure, except by determining piperidine formation. The rate of decomposition at 5° C. was approximately 0.0001 day^−1, as determined by piperidine formation, or 0.000055 day^−1 as determined by extrapolation from the rates at higher temperature according to the Arrhenius relationship.

[5] = Gacyclidine decomposition in Ringer's Lactate at 37° C.
Description: as §1
The pH of these Ringer's Lactate solutions was adjusted by addition of hydrochloric acid or sodium bicarbonate ([…]). […] To analyze these samples for gacyclidine and piperidine, the samples were first extracted with methylene chloride and then back-extracted into dilute hydrochloric acid. To the 0.40 mL sample to be analyzed were added 50 μL of 1.0 M sodium hydroxide and 0.8 mL of methylene chloride. After vigorous mixing, the aqueous and methylene chloride layers were allowed to separate. To 0.4 mL of the methylene chloride phase were added 20 μL of 1.0 M hydrochloric acid and 0.78 mL of water. After vigorous mixing, the aqueous and methylene chloride layers were allowed to separate and the aqueous layer was analyzed for gacyclidine and piperidine. This extraction procedure was necessary to remove the salt present in the sample for optimum detection of piperidine.

[6] = Effect of pH on gacyclidine decomposition and solubility in Ringer's solution at 55° C.; settings: 100 μM in Ringer's solution, 24 hours, pH 7.3 to 8.1, no excipient
Description: These samples were then incubated at 55° C. for 24 hours.
The pH of each sample was determined at 55° C. by use of a pH meter standardized at 55° C. The pH meter, electrode and standards were the same as described in Example 3.

[7] = excess free base added to a solution at physiological pH
[8] = 0.1% SOLUTOL HS15, 37° C., polypropylene vials
[9] = 0.1% TWEEN 80, 37° C., polypropylene vials

SMILES: CC1CCCCC1(c1cccs1)N1CCCCC1.Cl (stereo not shown) [gacyclidine, 1-(2-methyl-1-thiophen-2-yl-cyclohexyl)-piperidine hydrochloride]
- pH of solution ([1]; chloride salt, up to 150 mg/ml in water or unbuffered solution): about 4.4
- final concentration of dissolved gacyclidine [1, 7]: ≤ 0.02 mg/mL
- pH of solution [1, 7]: ≤ 7.7
- solubility ([1]; pH 4.4, chloride salt of the acid form, water or unbuffered Ringer's solution, read-out: solubility (solutions containing up to)): ≤ 150000 µg/mL
- gacyclidine remaining in solution (HPLC) ([1]; pH 9.5, 0.05 M CAPSO, 0.1 M NaCl, 0.3 mg/mL added, room temperature, 2 days): 0.0006 mg/mL
- solubility thermodynamic ([1]; saline or isotonic, thermodynamic from solid, free base in Ringer's solution reacting with dissolved carbon dioxide, pH 7.6): ~20 µg/mL
- solubility of the basic form with excipient ([2]; 0.1% CAPTISOL, 37° C., polypropylene containers): did not result in a clearly defined solubility
- gacyclidine retained in solution at high pH [2, 8]: ~32 μM
- gacyclidine retained in solution at high pH, % of total gacyclidine added [2, 8]: ~3.2%
- gacyclidine retained in solution at high pH [2, 9]: about 20 μM
- gacyclidine retained in solution at high pH, % of total gacyclidine added [2, 9]: ~2.0%
- solubility kinetic at 2 days ([2]; buffered aqueous solution, aqueous buffer, pH 9.2, 37° C., polypropylene vials, presence or absence of 0.1% SOLUPHOR P): ~1 µM
- gacyclidine remaining in solution, % of the total gacyclidine added ([2]; pH 9.2, 37° C., polypropylene vials, presence or absence of 0.1% SOLUPHOR P): ~0.1%
- effect of 0.1% SOLUTOL on losses of gacyclidine from solution [3]: no effect
- pH above which losses of gacyclidine were observed [3]: > 6
- decomposition rate ([4]; 1.0 mM gacyclidine in 10 mM hydrochloric acid (acid form)): 0.52 day⁻¹
- decomposition rate ([4]; 1.0 mM gacyclidine suspended in 1.5 mM sodium hydroxide (base form)): 0.0013 day⁻¹
- time required for 10% loss of gacyclidine due to decomposition ([4]; 5° C.): 3 years
- rate of decomposition ([4]; 5° C., determined by piperidine formation): approximately 0.0001 day^−1
- rate of decomposition ([4]; 5° C., extrapolation from rates at higher temperature (Arrhenius)): 0.000055 day⁻¹
- time required for 10% loss of gacyclidine due to decomposition ([4]; 23° C.): 53 days
- time required for 10% loss of gacyclidine due to decomposition ([4]; 37° C.): 3.8 days
- rate of decomposition ([4]; 55° C.): 0.73 day⁻¹
- time required for 10% loss of gacyclidine due to decomposition ([4]; 56° C.): 0.138 days
- pKa ([5]; Ringer's Lactate solution, 37° C., from decomposition rates, read-out: apparent pKA): 7.6
- Time for 10% Loss (37° C., Ringer's Lactate) ([5]; pH 5.5, 100 μM gacyclidine): 3.7 ± 0.1 days
- Time for 10% Loss (37° C., Ringer's Lactate) ([5]; pH 6.0, 100 μM gacyclidine): 3.82 ± 0.03 days
- Time for 10% Loss (37° C., Ringer's Lactate) ([5]; pH 7.4, 100 μM gacyclidine): 6.1 ± 0.4 days
- decomposition rate as % of the rate expected for the acid form ([5]; pH 7.4, 37° C., Ringer's Lactate): 62%
- fraction of gacyclidine in the acid form ([5]; pH 7.4 and 37° C.): 62%
- loss of gacyclidine from solution [6]: loss of gacyclidine both by decomposition and by precipitation from solution
